Drawing on patent publication US20130190289A1, “COMPOUNDS AND METHODS FOR THE TREATMENT OR PREVENTION OF FLAVIVIRUS INFECTIONS” (priority 2010, published 2013), this text covers IC50 and CC50 for twelve compounds.

The test system of data set [1] is HCV replicon (genotype 1b) in Huh7 cell line ET. Put plainly: microbe, parasite or virus in culture. It is filed as cell-based, HCV genotype 1b. The following applies: Hepatitis C virus, Huh-7, 96 h, read-out: HCV-Replicon (Luci-ET)-1b_IC50.
Data set [2] in a line: [3H]Thymidine incorporation assay (cell toxicity). The following applies: human.

In the case of `CC(C)(C)C#Cc1cc(N(CC(=O)N2CCSCC2)C(=O)[C@H]2CC[C@H](C)CC2)c(C(=O)O)s1` [Compound 127, 5-(3,3-dimethylbut-1-ynyl)-3-[(trans-4-methylcyclohexanecarbonyl)-(2-oxo-2-thiomorpholino-ethyl)amino]thiophene-2-carboxylic acid], the IC50 in data set [1] was less than 0.1 µM. Further, the CC50 at 72 h in data set [2] was in the range of 10 to 100 µM.
Take `C[C@H]1CC[C@H](C(=O)N(CC(=O)N2CCOCC2)c2cc(C#CC3CC3)sc2C(=O)O)CC1` [Compound 128, 5-(2-cyclopropylethynyl)-3-[(trans-4-methylcyclohexanecarbonyl)-(2-morpholino-2-oxo-ethyl)amino]thiophene-2-carboxylic acid]: in data set [1], the IC50 was less than 0.1 µM. The same compound returned a cytotoxic concentration (CC50) at 72 h in data set [2] of more than 100 µM.
In the case of `COC(C)(C)C#Cc1cc(N(CC(=O)N2CCOCC2)C(=O)[C@H]2CC[C@H](C)CC2)c(C(=O)O)s1` [Compound 129, 5-(3-methoxy-3-methyl-but-1-ynyl)-3-[(trans-4-methylcyclohexanecarbonyl)-(2-morpholino-2-oxo-ethyl)amino]thiophene-2-carboxylic acid], in data set [1], the IC50 is 0.1 to 1 µM. Besides, the CC50 at 72 h in data set [2] was more than 100 µM.
For `CCC#Cc1cc(N(CC(=O)N2CCOCC2)C(=O)[C@H]2CC[C@H](C)CC2)c(C(=O)O)s1` [Compound 132, 5-But-1-ynyl-3-[(trans-4-methylcyclohexanecarbonyl)-(2-morpholino-2-oxo-ethyl)amino]thiophene-2-carboxylic acid], in that order: 0.1 to 1 µM and more than 100 µM.
The like results for `CCN1CCCC[C@H](N(C(=O)c2ccc(Cl)cc2Cl)c2cc(C#CC(C)(C)C)sc2C(=O)O)C1=O` [Compound 135, (S)-5-(3,3-dimethylbut-1-ynyl)-3-[(2,4-dichlorobenzoyl)-N-(1-ethyl-2-oxoazepan-3-yl)amino]-thiophene-2-carboxylic acid] were, in that order, less than 0.1 µM and more than 100 µM.
For `CC(C)N1CC[C@@H](N(c2cc(C#CC(C)(C)C)sc2C(=O)O)C(=O)[C@H]2CC[C@H](C)CC2)C1=O` [Compound 141, 5-(3,3-dimethylbut-1-ynyl)-3-[[(3R)-1-isopropyl-2-oxo-pyrrolidin-3-yl]-(trans-4-methylcyclohexanecarbonyl)amino]thiophene-2-carboxylic acid], in that order: less than 0.1 µM and more than 100 µM.
Turning to `CC1(C#Cc2cc(N(CC(=O)N3CCOCC3)C(=O)[C@H]3CC[C@H](C)CC3)c(C(=O)O)s2)CC1` [Compound 144, 3-[(trans-4-methylcyclohexanecarbonyl)-(2-morpholino-2-oxo-ethyl)amino]-5-[2-(1-methylcyclopropyl)ethynyl]thiophene-2-carboxylic acid], the IC50 in data set [1] is less than 0.1 µM. The same compound returned a CC50 at 72 h in data set [2] of more than 100 µM.
The like results for `CN(C)CCN1CCCC[C@H](N(c2cc(C#CC(C)(C)C)sc2C(=O)O)C(=O)[C@H]2CC[C@H](C)CC2)C1=O` [Compound 145, (S)-5-(3,3-Dimethylbut-1-ynyl)-3-((trans)-4-methyl-N-(1-(2-dimethylaminoethyl)-2-oxoazepan-3-yl)cyclohexanecarboxamido)thiophene-2-carboxylic acid] were, in that order, less than 0.1 µM and 10 to 100 µM.
The like results for `CN1CCOC[C@H](N(C(=O)c2ccc(Cl)cc2Cl)c2cc(C#CC(C)(C)C)sc2C(=O)O)C1=O` [Compound 147, (S)-5-(3,3-Dimethylbut-1-ynyl)-3-[(2,4-dichlorobenzoyl)-N-(4-methyl-5-oxo-1,4-oxazepan-6-yl)amino]thiophene-2-carboxylic acid] were, in that order, 0.1 to 1 µM and more than 100 µM.
The like results for `COCCN1CCC[C@H](N(c2cc(C#CC(C)(C)C)sc2C(=O)O)C(=O)[C@H]2CC[C@H](C)CC2)C1=O` [Compound 150, (S)-5-(3,3-Dimethylbut-1-ynyl)-3-((trans)-4-methyl-N-(1-(2-methoxyethyl)-2-oxopiperidin-3-yl)cyclohexanecarboxamido)thiophene-2-carboxylic acid] were, in that order, less than 0.1 µM and more than 100 µM.
For `C[C@H]1CC[C@H](C(=O)N(CC(=O)N2CCOCC2)c2cc(-c3ccc(Oc4ccccc4)cc3)sc2C(=O)O)CC1` [Compound 151, 3-[(trans-4-methylcyclohexanecarbonyl)-(2-morpholino-2-oxo-ethyl)amino]-5-(4-phenoxyphenyl)thiophene-2-carboxylic acid], in data set [1], the IC50 is 0.1 to 1 µM. Also, the CC50 at 72 h in data set [2] was 10 to 100 µM.
The like results for `O=C(O)c1sc(-c2ccc(Oc3ccccc3)cc2)cc1N(CC(=O)N1CCOCC1)C(=O)c1ccc(Cl)cc1Cl` [Compound 152, 3-[(2,4-dichlorobenzoyl)-(2-morpholino-2-oxo-ethyl)amino]-5-(4-phenoxyphenyl)thiophene-2-carboxylic acid] were, in that order, 1 to 10 µM and 10 to 100 µM.
